Data on 2 compounds can be found in patent US20150278438A1, “GENETIC PREDICTORS OF RESPONSE TO TREATMENT WITH CRHR1 ANTAGONISTS” (MAX-PLANCK-GESELLSCHAFT ZUR FÖRDERUNG DER WISSENSCHAFTEN …, priority 2012, published 2015).

One experiment has as its system Cor26 CRH mice. Kind of experiment: Sleep EEG/EMG recording of REMS levels in Cor26 CRH mice treated with CRH-R1 antagonist. The conditions noted are these: 50 mg/kg/d via drinking water; for REMS levels: CRH-overexpressing Cor26 CRH mice.
For the next experiment, the system named is CRH-COE^CNS mice. Kind of experiment: Sleep EEG/EMG recording of REMS activity in CRH-COE^CNS mice treated with CRH-R1 antagonist. Type of experiment: in vivo, mouse. The following applies: 50 mg/kg/d via drinking water; for REMS activity: CRH-COE^CNS mice, versus baseline, significant beginning with treatment day two (DMP-696 P<0.05; SSR125543 P≦0.035). How it is done:
Experiments were conducted with two different mouse lines of excessive central CRH secretion and their respective control littermates (CL). Mice of the CRH-COE^CNS line are characterised by CRH-overexpression within the whole CNS, whereas mice of the Cor26 CRH line display a CRH-overexpression specific to CRH-ergic neurons of the CNS. Three different CRHR1 antagonists were tested. […] In all cases, animals were left to recover from EEG/EMG-electrode implantation for two weeks, after which two days of baseline recording were initiated. Treatment with CRH-R1 antagonist or respective vehicle control commenced thereafter for five consecutive days. Antagonists were applied through the drinking water at a daily dose of 50 mg/kg body weight. EEG and EMG recordings were manually scored as wake, non-REMS (NREMS), and REMS in four second epochs by an experienced evaluator.

The test system of experiment [1] is mice overexpressing CRH in the forebrain. The following applies: Kimura et al. 2010; cited from earlier work.

As to `CCC(CC)Oc1cc(C)nc(Oc2c(C)cc(C)cc2C)c1C` [CP-316,311], the REMS levels result is given as “apparently seemed weak” in the experiment on Cor26 CRH mice (50 mg/kg/day) and “suppressed” with Cor26 CRH mice (listed as CP-316311, 50 mg/kg/day). In the experiment with Cor26 CRH mice (Cor26 CRH mice, P=0.006), the “REMS levels, area under the curve (AUC) within the light period, baseline versus treatment day three” value is recorded as “significant decrease”.
Turning to `COCC(COC)Nc1nc(C)nc2c(-c3ccc(Cl)cc3Cl)c(C)nn12` [DMP-696], in the experiment on CRH-COE^CNS mice (CRH-COE^CNS animals, treatment day three), the “REMS activity, treatment day three” value was “strongest suppression”. Besides, the REMS activity entry in the experiment on CRH-COE^CNS mice (50 mg/kg/day) is reported as “significant decrease”; in the experiment with CRH-COE^CNS mice (listed as DMP696, 50 mg/kg/day), “suppressed”. Besides, in experiment [1], the REM enhancement result is “reverse the REM enhancement”.
